Entries after “also recorded” stand apart in the source; their conditions may differ. Where two headings read alike, the source gives them in different places.
What was measured:
Format in all cases: physicochemical
[1] = Dynamic Vapor Sorption (DVS) test
Procedure: The DSC data were collected using a TA Instruments Q10 DSC. Typically, samples (˜2 mg) were placed in hermetic alodined aluminum sample pans and scanned from 30 to 300° C. at a rate of 10° C./min under a nitrogen purge of 50 mL/min. The TGA data were collected using a TA Instruments TGA Q500. Typically, samples (˜10 mg) were placed in an open, pre-tared aluminum sample pan and scanned from 30 to 300° C. at a rate of 10° C./min using a nitrogen purge at 60 mL/min. The X-ray powder diffraction patterns were obtained using a Bruker D8 Advance equipped with a Cu Ku radiation source ([…]), a 9-position sample holder and a LYNXEYE Super Speed Detector. Typically, the duration of each scan was 180 seconds and the 2θ range was 4 to 40°. Samples were placed on zero-background, silicon plate holders. Samples were analyzed using an Aquadyne DVS-2 gravimetric water sorption analyzer. The relative humidity was adjusted between 2-95% and the weight of sample was continuously monitored and recorded.
A DVS experiment was run on the plinabulin monohydrate (Form 1). The sample gained ˜0.1% mass at 95% RH which was lost on drying to 0% RH without hysteresis. […] The XRPD pattern of the pre-DVS sample (Form 1 plinabulin monohydrate) overlays with the XRPD patterns of the post-DVS sample (Form 1 plinabulin monohydrate).

[2] = Dissolution in kolliphor (40% wt) and propylene glycol (60% wt); conditions: mixture of kolliphor (40% wt) and propylene glycol (60% wt)
Procedure: A batch of plinabulin having a KF analysis of about 3.1% for water content was added to a mixture of kolliphor (40% wt) and propylene glycol (60% wt). […] The batch was reprocessed according to the steps described in FIG. 29 to form the plinabulin monohydrate (Form 1).

[3] = Gravimetric solubility measurement in solvents; conditions: for solubility at 3 days: thermodynamic from solid, slurried 3 days
Procedure: A plinabulin compound was slurried in 15 different solvents/solvent mixtures as shown in Table 9 at 15° C. and 45° C. for 3 days for gravimetric solubility measurement. About 70 mg of solid was added to a vial for each experiment followed by addition of 0.7 mL of the respective solvents. Next, the slurry was centrifuged and the supernatant was added to pre-weighed vials and evaporated to dryness under vacuum. The vials with remaining solids were weighed again to calculate the solubility. […]

[4] = Drying study in vacuum oven at 50° C.; conditions: overnight and over the weekend
Procedure: A sample of plinabulin monohydrate (Form 1) was placed in a vacuum oven at 50° C. overnight and over the weekend.

[5] = Karl Fischer moisture level on extended drying and humid exposure
Procedure: Analysis by KF after drying at 45° C. under vacuum for an additional 70 hours indicated the moisture level had decreased to 4.1%. […] This sample was placed in a glove bag in an open container with an open container of water and the moisture level monitored. After 4 hours the moisture level was measured as 5.0%. After 18.5 hours the moisture level was measured as 4.8% and after 51 hours the KF result was 4.9%.
A sample of plinabulin compound (4.92 g) was stirred in ethanol (147.6 g) and heated to reflux (fully soluble at 75° C.). The solution was then allowed to cool and monitored for precipitation. A precipitate was observed when the solution was at 48° C. The mixture was re-heated to reflux providing a clear yellow solution. To the hot solution was added 295 g of water (approximately twice the mass of ethanol) allowing the mixture to cool during the addition. A precipitate was observed after charging approximately 150 mL of water with the temperature at 48° C. This solution was allowed to cool to room temperature. The solids were filtered and washed three times with 20 g of water. The solid was dried at 40-45° C. for 2.5 days to give 4.82 g, 98.0% recovery. […] Analysis by KF after drying at 45° C. under vacuum for an additional 70 hours indicated the moisture level had decreased to 4.4%. The XRPD of this sample indicates it was essentially unchanged, a mixture of Forms 1 and 3 with additional peaks (at around 12.26°, 15.19° and 28.79° 2θ degrees). This sample was placed in a glove bag in an open container with an open container of water and the moisture level monitored. After 4 hours the moisture level was measured as 5.0%. After 18.5 hours the moisture level was measured as 4.9% and after 51 hours the KF result was 5.1%.

[6] = High humidity exposure stability; conditions: >95% RH for 13 days
Excerpt: Form 1 was also stable under various humidity conditions. On the other hand, the crystalline forms converted to Form I monohydrate when exposed to moisture.

[7] = listed as plinabulin monohydrate (Form 1)

In the case of `CC(C)(C)c1[nH]cnc1/C=c1\[nH]c(=O)/c(=C/c2ccccc2)[nH]c1=O` [Form 3], the “post-DVS sample versus pre-DVS sample by XRPD” value [1] is reported as “differed from the pre-DVS sample”, the “mass lost in DVS” value ([1]; at 90% RH) is reported as “about 0.2%” and the “dissolution in diluent mixture” value ([2]; listed as anhydrous plinabulin (Form 3)) is reported as “insoluble particles”.
In the case of `CC(C)(C)c1[nH]cnc1/C=c1\[nH]c(=O)/c(=C/c2ccccc2)[nH]c1=O` [plinabulin compound, (3Z,6Z)-3-Benzylidene-6-{[5-(2-methyl-2-propanyl)-1H-imidazol-4-yl]methylene}-2,5-piperazinedione], the “solubility (in words)” value ([3]; THF) is reported as “highly soluble”.
In the case of `CC(C)(C)c1[nH]cnc1/C=c1\[nH]c(=O)/c(=C/c2ccccc2)[nH]c1=O` [plinabulin monohydrate, (3Z,6Z)-3-Benzylidene-6-{[5-(2-methyl-2-propanyl)-1H-imidazol-4-yl]methylene}-2,5-piperazinedione], the “stability during the DVS and drying tests (in words)” value [1] is reported as “remained stable”, the “mass gained in DVS” value ([1]; at 95% RH) is reported as about 0.1% and the “post-DVS sample versus pre-DVS sample by XRPD” value [1, 7] is reported as “no transformation had taken place”. The “change in weight during drying” value [4] was “no change in weight”, the stability on drying [4, 7] was “stable to drying; also recorded: remained stable” and the “dissolution in diluent mixture” value [2, 7] was “dissolved completely”. It also gave a solubility at 3 days ([3]; organic solvent or mixture, ACN, 15° C., read-out: Solubility at 15° C.) of 3000 µg/mL, a solubility at 3 days ([3]; organic solvent or mixture, ACN, 45° C., read-out: Solubility at 45° C.) of 7000 µg/mL and a solubility at 3 days ([3]; organic solvent or mixture, Acetone:water (95:5), 15° C., read-out: Solubility at 15° C.) of 6000 µg/mL. The solubility at 3 days ([3]; organic solvent or mixture, Acetone:water (95:5), 45° C., read-out: Solubility at 45° C.) was 16000 µg/mL, the solubility at 3 days ([3]; organic solvent or mixture, Acetone, 15° C., read-out: Solubility at 15° C.) was 11000 µg/mL and the solubility at 3 days ([3]; organic solvent or mixture, Acetone, 45° C., read-out: Solubility at 45° C.) was 20000 µg/mL. For the same compound, the solubility at 3 days ([3]; organic solvent or mixture, DCM, 15° C., read-out: Solubility at 15° C.) was 2000 µg/mL, the solubility at 3 days ([3]; organic solvent or mixture, EtOAc, 15° C., read-out: Solubility at 15° C.) was 3000 µg/mL and the solubility at 3 days ([3]; organic solvent or mixture, EtOAc, 45° C., read-out: Solubility at 45° C.) was 8000 µg/mL. For the same compound, the solubility at 3 days ([3]; organic solvent or mixture, EtOH:water (95:5), 15° C., read-out: Solubility at 15° C.) was 4000 µg/mL, the solubility at 3 days ([3]; organic solvent or mixture, EtOH:water (95:5), 45° C., read-out: Solubility at 45° C.) was 13000 µg/mL and the solubility at 3 days ([3]; organic solvent or mixture, EtOH, 15° C., read-out: Solubility at 15° C.) was 5000 µg/mL. For the same compound, the solubility at 3 days ([3]; organic solvent or mixture, EtOH, 45° C., read-out: Solubility at 45° C.) was 13000 µg/mL, the solubility at 3 days ([3]; organic solvent or mixture, Heptane, 15° C., read-out: Solubility at 15° C.) was under 1000 µg/mL and the solubility at 3 days ([3]; organic solvent or mixture, Heptane, 45° C., read-out: Solubility at 45° C.) was 3000 µg/mL. The solubility at 3 days ([3]; organic solvent or mixture, IPA, 15° C., read-out: Solubility at 15° C.) was 1000 µg/mL, the solubility at 3 days ([3]; organic solvent or mixture, IPA, 45° C., read-out: Solubility at 45° C.) was 7000 µg/mL and the solubility at 3 days ([3]; organic solvent or mixture, MEK, 15° C., read-out: Solubility at 15° C.) was 11000 µg/mL. For the same compound, the solubility at 3 days ([3]; organic solvent or mixture, MEK, 45° C., read-out: Solubility at 45° C.) was 23000 µg/mL, the solubility at 3 days ([3]; organic solvent or mixture, MTBE, 15° C., read-out: Solubility at 15° C.) was under 1000 µg/mL and the solubility at 3 days ([3]; organic solvent or mixture, MTBE, 45° C., read-out: Solubility at 45° C.) was 5000 µg/mL. The solubility at 3 days ([3]; organic solvent or mixture, MeOH, 15° C., read-out: Solubility at 15° C.) was 5000 µg/mL, the solubility at 3 days ([3]; organic solvent or mixture, MeOH, 45° C., read-out: Solubility at 45° C.) was 13000 µg/mL and the solubility at 3 days ([3]; organic solvent or mixture, THF, 15° C., read-out: Solubility at 15° C.) was 40000 µg/mL. The solubility at 3 days ([3]; organic solvent or mixture, THF, 45° C., read-out: Solubility at 45° C.) was 96000 µg/mL, the solubility at 3 days ([3]; organic solvent or mixture, Toluene, 15° C., read-out: Solubility at 15° C.) was 1000 µg/mL and the solubility at 3 days ([3]; organic solvent or mixture, Toluene, 45° C., read-out: Solubility at 45° C.) was 7000 µg/mL. For the same compound, the solubility at 3 days ([3]; Water, 15° C., read-out: Solubility at 15° C.) was under 1000 µg/mL, the solubility at 3 days ([3]; Water, 45° C., read-out: Solubility at 45° C.) was under 1000 µg/mL and the “moisture level (KF)” value ([5]; after drying at 45° C. under vacuum for an additional 70 hours) was 4.1%. For the same compound, the “moisture level (KF)” value ([5]; dried sample in glove bag with open container of water, after 4 hours) was 5.0%, the “moisture level (KF)” value ([5]; dried sample in glove bag with open container of water, after 18.5 hours) was 4.8% and the “moisture level (KF)” value ([5]; dried sample in glove bag with open container of water, after 51 hours) was 4.9%. For the same compound, the “stability in high humidity environment” value ([6]; listed as form 1) was “no change in solid form” and the “stability in high humidity environment” value [6, 7] was “no change in solid form; also recorded: remained stable with no change in mass”.
